Consider 30 compounds from patent publication US20110313032A1, “COMPETITIVE INHIBITORS OF TYPE II DEHYDROQUINASE ENZYME” (priority 2008, published 2011).

Molecules are shown by their SMILES. Where two headings read alike, the source gives them in different places. Some results are limits rather than exact numbers.

In data set [1] the target is T1, type II dehydroquinase from Helicobacter pylori (Helicobacter pylori, UniProt Q48255).
T1 sequence (Q48255 1-167): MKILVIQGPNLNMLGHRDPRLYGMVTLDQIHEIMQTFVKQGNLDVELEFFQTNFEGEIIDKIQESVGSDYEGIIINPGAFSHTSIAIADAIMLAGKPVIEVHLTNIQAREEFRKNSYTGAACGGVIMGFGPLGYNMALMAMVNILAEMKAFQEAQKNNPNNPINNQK
Kind of data set: Inhibition of type II dehydroquinase from Helicobacter pylori (Ki). The data set is classed as biochemical. As to the method:
(§1) Effect of compounds of formula I of the invention on the catalytic activity of the type II dehydroquinase from various sources. The inhibitory potency of compounds I of the invention against type II dehydroquinases from Mycobacterium tuberculoris, Streptomyces coelicolor and Helicobacter pylori were assayed as it is described in the following articles: 1) Sanchez-Sixto, C.; Prazeres, V. F. V.; Castedo, L.; Lamb, H.; Hawkins, A. R.; Gonzalez-Bello, C. J. Med. Chem. 2005, 48, 4871; 2) Prazeres, V. F. V.; Sanchez-Sixto, C.; Castedo, L.; Lamb, H.; Hawkins, A. R.; Riboldi-Tunnicliffe; Coggins, J. R.; Lapthorn, A. J.; González-Bello, C. Chem Med Chem 2007, 2, 194; and 3) Sanchez-Sixto, C.; Prazeres, V. F. V.; Castedo, L.; S. W. Suh, Lamb, H.; Hawkins, A. R.; Canada, F. J.; Jiménez-Barbero, J.; González-Bello, C. Chem Med Chem 2008, 3, 756.

The target in data set [2] is type II dehydroquinase from Streptomyces coelicolor (Streptomyces coelicolor, UniProt P15474). Kind of data set: Inhibition of type II dehydroquinase from Streptomyces coelicolor (Ki). It counts as biochemical. As to the method:
as §1

Data set [3] deals with type II dehydroquinase from Mycobacterium tuberculosis (Mycobacterium tuberculosis, UniProt P9WPX7). Briefly: biochemical. How it is done:
as §1

Setting [4] is: pH = 7.0, 25° C., 50 mM Tris•HCl, read-out: Inhibition constants Ki, H. pylori.
Where [5] appears, read: Inhibition constants Ki, S. coelicolor, pH = 7.0, 25° C., 50 mM Tris•HCl.
Setting [6] is: Inhibition constants Ki, M. tuberculosis, pH = 7.0, 25° C., 50 mM Tris•HOAc.
[7] abbreviates: inhibition constants against Mycobacterium tuberculosis.
The mark [8] stands for this setting: pH = 7.0, 25° C., 50 mM Tris•HOAc, read-out: Inhibition constants Ki, M. tuberculosis.
Setting [9] is: pH = 7.0, 25° C., 50 mM Tris•HCl, read-out: Inhibition constants Ki, S. coelicolor.
Where [10] appears, read: Inhibition constants Ki, H. pylori, pH = 7.0, 25° C., 50 mM Tris•HCl.

type II dehydroquinase from Mycobacterium tuberculosis, sequence (P9WPX7 whole entry): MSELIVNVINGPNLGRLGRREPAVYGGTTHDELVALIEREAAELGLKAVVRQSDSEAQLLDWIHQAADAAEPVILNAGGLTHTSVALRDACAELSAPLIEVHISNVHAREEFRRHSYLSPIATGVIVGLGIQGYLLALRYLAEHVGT
type II dehydroquinase from Streptomyces coelicolor, sequence (P15474 whole entry): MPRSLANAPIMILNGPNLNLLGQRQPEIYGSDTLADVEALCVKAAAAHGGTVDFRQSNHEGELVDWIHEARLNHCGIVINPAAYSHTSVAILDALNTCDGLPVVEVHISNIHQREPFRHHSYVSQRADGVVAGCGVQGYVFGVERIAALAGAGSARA

Regarding `C/C=C/c1cc2c(s1)[C@@H](OC(C)=O)[C@H](OC(C)=O)C[C@]2(OC(C)=O)C(=O)OC`, the melting point lay in the range of 140 to 143 °C.
`CCOC(=O)[C@@]1(O)C[C@@H](O)[C@H](O)c2sc(CCc3ccccc3)cc21` came in with a melting point of 118 to 120 °C.
With `COC(=O)[C@@]1(O)C[C@@H](O)[C@H](O)c2sc(C)cc21`, the melting point fell in the range of 87 to 92 °C.
On to `CC(C)c1cc2c(s1)[C@@H](O)[C@H](O)C[C@]2(O)C(=O)O`, for which the melting point lay within 125 to 127 °C.
In the case of `Cc1ccc(CC2C(=O)C(O)C(O)CC2(O)C(=O)O)cc1` (single isomer, unassigned) [(2R)-Ia-4], the Ki was 0.25 µM in data set [1] (setting [4]), 0.022 µM in data set [2] (setting [5]) and 0.089 µM in data set [3] (setting [6]).
In the case of `COc1ccc(CC2C(=O)C(O)C(O)CC2(O)C(=O)O)cc1` (single isomer, unassigned) [(2R)-Ia-5], the values for the Ki in data set [1] (setting [4]), in data set [2] (setting [5]) and in data set [3] (setting [7]) were 0.17 µM, 0.034 µM and 0.025 µM, respectively. Further, the “times more effective than 2,3-dehydroquinic acid, M. tuberculosis” value in data set [3] (Ki ratio) amounted to 8000 times. Besides, the “times more affinity with respect of the natural substrate, M. tuberculosis” value in data set [3] (Km of substrate / Ki) came out at 1600 times.
With `O=C1C(O)C(O)CC(O)(C(=O)O)C1Cc1c(F)c(F)c(F)c(F)c1F` (single isomer, unassigned) [(2R)-Ia-6], the Ki in data set [1] (setting [4]) is 2.6 µM; in data set [2] (setting [5]), 0.242 µM; in data set [3] (setting [6]), 0.047 µM.
On to `O=C1C(O)C(O)CC(O)(C(=O)O)C1Cc1ccc2sccc2c1` (single isomer, unassigned) [(2R)-Ia-7], for which the figures for the Ki in data set [1] (setting [4]), in data set [2] (setting [5]) and in data set [3] (setting [6]) were 0.16 µM, 0.004 µM and 0.029 µM, respectively.
Consider `O=C1C(O)C(O)CC(O)(C(=O)O)C1Cc1c(F)c(F)c(F)c(F)c1F` (single isomer, unassigned) [(2S)-Ia-6], for which the Ki in data set [2] (setting [5]) was 0.0065 µM; in data set [3] (setting [6]), 0.074 µM.
For the compound `C=CC[C@H]1C(=O)[C@@H](O)[C@H](O)C[C@]1(O)C(=O)O` [(2R)-Ia-1, (2R)-2-allyl-3-dehydroquinic acid], the Ki amounted to 9.4 µM in data set [1] (setting [4]), 10.2 µM in data set [2] (setting [5]) and 0.76 µM in data set [3] (setting [8]).
Take `CCCC1C(=O)C(O)C(O)CC1(O)C(=O)O` [(2R)-Ia-2, (2R)-2-propyl-3-dehydroquinic acid]: the values for the Ki in data set [1] (setting [4]), in data set [2] (setting [5]) and in data set [3] (setting [8]) were 20 µM, 76 µM and 1.7 µM, respectively.
Regarding `C=CC[C@@H]1C(=O)[C@@H](O)[C@H](O)C[C@]1(O)C(=O)O` [(2S)-Ia-1, (2S)-2-allyl-3-dehydroquinic acid], the Ki worked out at 21.5 µM in data set [1] (setting [4]), 6.7 µM in data set [2] (setting [5]) and 1.85 µM in data set [3] (setting [8]).
Consider `O=C(O)[C@]1(O)C=C(OCc2cc3ccccc3s2)[C@@H](O)[C@H](O)C1` [Ib-1, Sodium (1R, 4S, 5R)-3-(benzo[b]thiophen-2-yl)methoxy-1,4,5-trihydroxycyclohex-2-en-1-carboxylate], for which the Ki in data set [1] (setting [4]) stood at 0.16 µM; in data set [2] (setting [9]) it was 0.00048 µM; in data set [2] (read-out: affinities in the case of S. coelicolor), 0.00048 µM; in data set [3] (setting [7]) it was 0.0032 µM.
With `O=C(O)C1(O)CC(O)C(O)C(OCc2cc3ccccc3s2)=C1Cc1cc2ccccc2s1` (stereo not shown) [Ib-2], the Ki worked out at 0.14 µM in data set [1] (setting [4]), 0.0028 µM in data set [2] (setting [5]) and 0.00425 µM in data set [3] (setting [6]).
On the same counts, the results for `Cc1ccc2sc(COC3=C[C@@](O)(C(=O)O)C[C@@H](O)[C@@H]3O)cc2c1` [Ib-3, Sodium (1R, 4S, 5R)-1,4,5-trihydroxy-3-(5-methylbenzo[b]thiophen-2-yl)methoxycyclohex-2-en-1-carboxylate] are 0.097 µM, 0.0024 µM and 0.04 µM.
On to `Cc1ccc2sc(COC3=C(Cc4cc5cc(C)ccc5s4)[C@@](O)(C(=O)O)C[C@@H](O)[C@@H]3O)cc2c1` [Ib-4, Sodium (1R, 4S, 5R)-1,4,5-trihydroxy-3-(5-methylbenzo[b]thiophen-2-yl)methoxy-2-(5-methylbenzo[b]thiophen-2-yl)methylcyclohex-2-en-1-carboxylate], for which the Ki in data set [1] (setting [4]) stood at 0.07 µM; in data set [2] (setting [5]), 0.013 µM; in data set [3] (setting [8]) it was 0.19 µM.
Regarding `C=CCC1=C(OCc2cc3ccccc3s2)[C@@H](O)[C@H](O)C[C@]1(O)C(=O)O` [Ib-5, Sodium (1R, 4S, 5R)-2-allyl-3-(benzo[b]thiophen-2-yl)methoxy-1,4,5-tri-hydroxycyclohex-2-en-1-carboxylate], the Ki was found to be 1.1 µM in data set [1] (setting [4]), 0.015 µM in data set [2] (setting [5]) and 1.24 µM in data set [3] (setting [8]).
Consider `O=C(O)[C@]1(O)C=C(OCc2ccc3sccc3c2)[C@@H](O)[C@H](O)C1` [Ib-7, Sodium (1R,4S,5R)-1,4,5-trihydroxy-3[(benzo[b]thiophen-5-yl)methoxy]cyclohex-2-en-1-carboxylate], for which the Ki in data set [1] (setting [4]) is 0.166 µM; in data set [2] (setting [5]), 0.0003 µM; in data set [3] (setting [8]) it was 0.031 µM.
`O=C(O)[C@@]1(O)C[C@@H](O)[C@H](O)C(OCc2cccs2)=C1Cc1cccs1` [Ib-8]: the Ki in data set [1] (setting [4]) was 15 µM; in data set [2] (setting [9]) it was 0.14 µM.
On to `O=C(O)[C@@]1(O)C[C@@H](O)[C@H](O)C(OCc2ccc3ccccc3c2)=C1Cc1ccc2ccccc2c1` [Ib-11, Sodium (1R,4S,5R)-1,4,5-trihydroxy-3-(naphth-2-yl)methoxy-2-(naphth-2-yl)methylcyclohex-2-en-1-carboxylate], for which the Ki in data set [2] (setting [9]) amounted to 0.032 µM.
`O=C(O)[C@@]1(O)C[C@@H](O)[C@H](O)C(OCc2cccs2)=C1Cc1cc2ccccc2s1` [Ib-12, Sodium (1R,4S,5R)-1,4,5-trihydroxy-3-(thien-2-yl)methoxy-2-(benzo[b]thiophen-2-yl)methylcyclohex-2-en-1-carboxylate]: the Ki in data set [1] (setting [4]) is 0.046 µM; in data set [2] (setting [5]), 0.279 µM.
`O=C([O-])[C@@]1(O)C[C@@H](O)[C@H](O)C(OCc2ccc3sccc3c2)=C1Cc1cccs1.[Na+]` [Ib-13, Sodium (1R,4S,5R)-1,4,5-trihydroxy-3-(benzo[b]thiophen-5-yl)methoxy-2-(thien-2-yl)methylcyclohex-2-en-1-carboxylate]: in data set [1] (Ki ratio), the “times more effective than the 2,3-dehydroquinic acid, H. pylori” value is listed as 16.190 times. Further, the “times more affinity with respect of the natural substrate, H. pylori” value in data set [1] (Km of substrate / Ki) is given as “about 21.000 times”. Further, the Ki in data set [1] (read-out: affinities in the case of H. pylori) was 0.021 µM; in data set [2] (setting [5]), 0.28 µM.
As for `O=C(O)[C@]1(O)C=C(OCc2ccc3ccccc3c2)[C@@H](O)[C@H](O)C1` [Ib-.10, Sodium (1R,4S,5R)-1,4-trihydroxy-3-(2-naphyl)methoxycyclohex-2-en-1-carboxylate], the Ki in data set [2] (setting [9]) is under 0.00026 µM.
Turning to `Cc1cc2c(s1)[C@@H](O)[C@H](O)C[C@]2(O)C(=O)O` [Ic-2, (4R, 6R, 7S)-4,6,7-trihydroxy-2-methyl-4,5,6,7-tetrahydrobenzo[b]thiophen-4-carboxylic acid], the Ki is 1.6 µM in data set [1] (setting [10]), 3.15 µM in data set [2] (setting [9]) and 0.4 µM in data set [3] (setting [6]).
In the case of `C=Cc1cc2c(s1)[C@@H](O)[C@H](O)C[C@]2(O)C(=O)O` [Ic-3, (4R, 6R, 7S)-4,6,7-trihydroxy-2-vinyl-4,5,6,7-tetrahydrobenzo[b]thiophen-4-carboxylic acid], the results for the Ki in data set [1] (setting [10]), in data set [2] (setting [9]) and in data set [3] (setting [6]) were 1.25 µM, 0.81 µM and 0.052 µM, respectively.
As for `C/C=C/c1cc2c(s1)[C@@H](O)[C@H](O)C[C@]2(O)C(=O)O` [Ic-4, (4R, 6R, 7S)-4,6,7-trihydroxy-2-[(E)-prop-1-enyl]-4,5,6,7-tetrahydrobenzo[b]thiophen-4-carboxylic acid], the Ki in data set [1] (setting [10]) came to 0.35 µM; in data set [2] (setting [9]), 0.093 µM; in data set [3] (setting [6]) it was 0.097 µM.
For the compound `C=C(C)c1cc2c(s1)[C@@H](O)[C@H](O)C[C@]2(O)C(=O)O` [Ic-5], the Ki in data set [1] (setting [10]) turned out to be 38 µM; in data set [2] (setting [9]), 1.88 µM; in data set [3] (setting [6]), 0.86 µM.
Turning to `C=C(c1ccccc1)c1cc2c(s1)[C@@H](O)[C@H](O)C[C@]2(O)C(=O)O` [Ic-10, (4R,6R,7S)-4,6,7-trihydroxy-2-(1-phenylvinyl)-4,5,6,7-tetrahydro-benzo[b]thiophen-4-carboxylic acid], the Ki came to 20.5 µM in data set [1] (setting [10]) and 4.65 µM in data set [2] (setting [9]).
On the same counts, the results for `O=C(O)[C@@]1(O)C[C@@H](O)[C@H](O)c2sc(CCc3ccccc3)cc21` [Ic-12, (4R,6R,7S)-4,6,7-trihydroxy-2-phenethyl-4,5,6,7-tetrahydrobenzo[b]thiophene-4-carboxylic acid] are 1.7 µM and 0.046 µM.
`CCCc1cc2c(s1)[C@@H](O)[C@H](O)C[C@]2(O)C(=O)O` [Ic-13, (4R,6R,7S)-4,6,7-trihydroxy-2-propyl-4,5,6,7-tetrahyclrobenzo[b]thiophene-4-carboxylic acid]: the Ki in data set [1] (setting [10]) stood at 0.12 µM; in data set [2] (setting [9]) it was 0.022 µM.

In general, melting point refers to the temperature, or range, at which the solid turns liquid.
